From patent publication US7034049B1, “3(5)-amino-pyrazole derivatives, process for their preparation and their use as antitumor agents” (Pharmacia Italia S.p.A., priority 1999, dated 2006)

In the case of `CC(=O)Nc1cc(C2CC2)n[nH]1` [Compound 88, N-(3-cyclopropyl-1H-pyrazol-5-yl)acetamide], the melting point was 167 to 171 °C. In the case of `O=C(Nc1cc(C2CC2)n[nH]1)c1cc2ccccc2s1` [Compound 91, N-(3-cyclopropyl-1H-pyrazol-5-yl)-1-benzothiophene-2-carboxamide], the melting point was 238 to 239 °C. Compound `O=C(CCc1ccccc1)Nc1cc(C2CC2)n[nH]1` [Compound 93, N-(3-cyclopropyl-1H-pyrazol-5-yl)-3-phenylpropanamide] has a melting point of 152 to 160 °C. For `COC(=O)c1ccc(C(=O)Nc2cc(C3CC3)n[nH]2)cc1` [Compound 94, Methyl 4-{[(3-cyclopropyl-1H-pyrazol-5-yl)amino]carbonyl}benzoate], the melting point was 173 to 174 °C. `O=C(Nc1cc(C2CC2)n[nH]1)c1cc2ccccc2[nH]1` [Compound 102, N-(3-cyclopropyl-1H-pyrazol-5-yl)-1H-indole-2-carboxamide] gave a melting point of 268 to 269 °C. Compound `O=C(Nc1cc(C2CC2)n[nH]1)c1ccc[nH]1` [Compound 248, N-(3-cyclopropyl-1H-pyrazol-5-yl)-1H-pyrrole-2-carboxamide] has a melting point of 220 to 221 °C.
